From PubChem BioAssay (NCI)
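Method: 48-hour compound exposure of cells in 96-well plates, five concentrations, linear interpolation of endpoints. Here, GI50 denotes the concentration required for 50% inhibition of growth. TGI: concentration producing complete growth inhibition.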

How the values were obtained:
Assay in all cases: DTP human tumour cell line panel, 48 h
[1] = system: OVCAR-5 ovarian
[2] = system: MALME-3M melanoma
[3] = system: OVCAR-4 ovarian
[4] = system: SK-MEL-28 melanoma
[5] = system: HS 578T breast
[6] = system: A549 NSCLC
[7] = system: HCT-15 colon
[8] = system: SNB-75 CNS
[9] = system: T-47D breast
[10] = system: NCI-H23 lung
[11] = system: M14 melanoma
[12] = system: ACHN renal
[13] = system: COLO 205 colon
[14] = system: RPMI-8226 leukemia
[15] = system: SF-268 CNS
[16] = system: UACC-62 melanoma
[17] = system: NCI-H522 lung
[18] = system: SN12C renal
[19] = system: MDA-MB-231 breast
[20] = system: SNB-19 CNS
[21] = system: HCC-2998 colon
[22] = system: SF-295 CNS
[23] = system: TK-10 renal
[24] = system: BT-549 breast
[25] = system: CAKI-1 renal
[26] = system: NCI-H460 lung
[27] = system: CCRF-CEM leukemia

Structure (SMILES): O=C(N/N=C\c1ccc(Cl)cc1)c1ccc2nc(-c3ccc(Br)cc3)[nH]c2c1
- GI50 [1]: 1990 nM
- TGI [1]: 4260 nM
- GI50 [2]: 1680 nM
- TGI [2]: 3220 nM
- GI50 [3]: 2070 nM
- TGI [3]: 4830 nM
- GI50 [4]: 1730 nM
- TGI [4]: 3260 nM
- GI50 [5]: 2190 nM
- TGI [5]: 5270 nM
- GI50 [6]: 1750 nM
- TGI [6]: 3300 nM
- GI50 [7]: 1520 nM
- TGI [7]: 3330 nM
- GI50 [8]: 1830 nM
- TGI [8]: 4010 nM
- GI50 [9]: 1580 nM
- TGI [9]: 3250 nM
- GI50 [10]: 1860 nM
- TGI [10]: 4020 nM
- GI50 [11]: 1920 nM
- TGI [11]: 3930 nM
- GI50 [12]: 1750 nM
- TGI [12]: 3170 nM
- GI50 [13]: 1430 nM
- TGI [13]: 2860 nM
- GI50 [14]: 1600 nM
- TGI [14]: 3890 nM
- GI50 [15]: 2560 nM
- TGI [15]: 6870 nM
- GI50 [16]: 1850 nM
- TGI [16]: 3850 nM
- GI50 [17]: 1630 nM
- TGI [17]: 3380 nM
- GI50 [18]: 1760 nM
- TGI [18]: 3490 nM
- GI50 [19]: 1900 nM
- TGI [19]: 3890 nM
- GI50 [20]: 2110 nM
- TGI [20]: 4910 nM
- GI50 [21]: 1830 nM
- TGI [21]: 3610 nM
- GI50 [22]: 2070 nM
- TGI [22]: 4590 nM
- GI50 [23]: 2070 nM
- TGI [23]: 3890 nM
- GI50 [24]: 1870 nM
- TGI [24]: 5540 nM
- GI50 [25]: 1600 nM
- TGI [25]: 3100 nM
- GI50 [26]: 601 nM
- TGI [26]: 1940 nM
- GI50 [27]: 1900 nM
- TGI [27]: 4730 nM
